Laboratory results: ChEMBL document CHEMBL1137175, “Nonpeptide alpha V beta 3 antagonists. Part 9: Improved pharmacokinetic profile through the use of an aliphatic, des-amide backbone” (Bioorg Med Chem Lett, 2004)

Key:
Integrin alpha-V/beta-3 [1] = target: T1, Integrin alpha-V/beta-3 (Homo sapiens, UniProt P05106+P06756); test: Inhibition of binding to alpha v beta 3 receptor; assay type: protein-complex assay
Integrin alpha-V/beta-3 [2] = target: T1, Integrin alpha-V/beta-3; test: Inhibition of alpha v beta 3 receptor binding; assay type: protein-complex assay
[3] = Half life of compound is determined in dogs; assay type: ADME, Canis lupus familiaris; details: dog, in vivo
[4] = Partition coefficient (logP); assay type: physicochemical; details: octanol/water
[5] = Oral bioavailability in dog; assay type: ADME, organism-based, Canis lupus familiaris; details: in vivo
[6] = Concentration required for plasma clearance is determined in dogs; assay type: ADME, organism-based, Canis lupus familiaris; details: dog

T1 sequence (P05106 27-788 limits assumed): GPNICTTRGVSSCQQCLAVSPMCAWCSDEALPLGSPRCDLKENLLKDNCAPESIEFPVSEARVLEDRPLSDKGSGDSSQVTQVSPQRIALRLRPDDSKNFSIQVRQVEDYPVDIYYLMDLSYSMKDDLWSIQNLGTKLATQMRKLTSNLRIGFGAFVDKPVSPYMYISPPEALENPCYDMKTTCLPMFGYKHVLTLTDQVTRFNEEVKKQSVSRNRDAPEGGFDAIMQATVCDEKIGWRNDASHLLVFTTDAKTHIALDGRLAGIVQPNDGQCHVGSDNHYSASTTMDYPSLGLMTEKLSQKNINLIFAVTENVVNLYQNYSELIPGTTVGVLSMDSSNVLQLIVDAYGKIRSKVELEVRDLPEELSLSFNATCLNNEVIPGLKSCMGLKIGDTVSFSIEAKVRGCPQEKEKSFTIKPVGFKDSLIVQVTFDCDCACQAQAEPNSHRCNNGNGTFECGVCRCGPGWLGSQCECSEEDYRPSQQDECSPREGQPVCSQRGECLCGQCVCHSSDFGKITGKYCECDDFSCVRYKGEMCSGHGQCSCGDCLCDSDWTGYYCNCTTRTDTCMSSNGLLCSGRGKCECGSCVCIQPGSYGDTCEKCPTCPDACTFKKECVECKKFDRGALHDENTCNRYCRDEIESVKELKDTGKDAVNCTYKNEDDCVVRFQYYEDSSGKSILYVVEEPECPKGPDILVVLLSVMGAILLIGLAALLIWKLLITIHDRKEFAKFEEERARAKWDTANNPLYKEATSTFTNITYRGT
T1 sequence (P06756 31-889 limits assumed): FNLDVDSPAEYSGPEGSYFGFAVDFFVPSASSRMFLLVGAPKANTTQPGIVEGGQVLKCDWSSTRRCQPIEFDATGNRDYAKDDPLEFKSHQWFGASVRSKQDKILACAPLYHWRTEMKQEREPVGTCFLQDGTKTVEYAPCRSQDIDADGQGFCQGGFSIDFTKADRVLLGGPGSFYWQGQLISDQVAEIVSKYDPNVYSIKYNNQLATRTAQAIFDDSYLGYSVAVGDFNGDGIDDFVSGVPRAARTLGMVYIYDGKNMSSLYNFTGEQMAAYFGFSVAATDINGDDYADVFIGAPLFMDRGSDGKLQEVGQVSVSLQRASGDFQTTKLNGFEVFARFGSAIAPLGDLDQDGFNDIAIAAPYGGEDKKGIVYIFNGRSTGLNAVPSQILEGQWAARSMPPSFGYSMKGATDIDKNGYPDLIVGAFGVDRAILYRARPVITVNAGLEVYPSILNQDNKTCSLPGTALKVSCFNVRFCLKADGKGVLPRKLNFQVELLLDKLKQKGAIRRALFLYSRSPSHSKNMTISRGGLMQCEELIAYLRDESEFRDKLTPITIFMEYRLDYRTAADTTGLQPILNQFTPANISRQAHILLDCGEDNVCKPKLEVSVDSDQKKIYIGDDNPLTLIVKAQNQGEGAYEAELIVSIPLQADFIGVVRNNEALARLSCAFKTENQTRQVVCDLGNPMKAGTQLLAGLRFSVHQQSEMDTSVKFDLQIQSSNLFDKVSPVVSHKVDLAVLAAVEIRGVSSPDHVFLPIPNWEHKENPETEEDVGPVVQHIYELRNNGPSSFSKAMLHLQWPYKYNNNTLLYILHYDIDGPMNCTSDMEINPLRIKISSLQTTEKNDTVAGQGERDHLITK
T1 sequence (P06756 891-1048 limits assumed): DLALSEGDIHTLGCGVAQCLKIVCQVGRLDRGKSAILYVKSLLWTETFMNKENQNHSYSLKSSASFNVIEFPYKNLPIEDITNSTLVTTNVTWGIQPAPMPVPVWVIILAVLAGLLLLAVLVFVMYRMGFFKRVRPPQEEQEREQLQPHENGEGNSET

SMILES | IC50 (Integrin alpha-V/beta-3 [1]) [nM] | IC50 (Integrin alpha-V/beta-3 [2]) [nM] | other results
O=C(NCc1ccccc1)N[C@@H](CCCCCCCc1ccc2c(n1)NCCC2)C(=O)O | 4.7 |  | 
O=C(O)[C@H](CCCCCCCc1ccc2c(n1)NCCC2)NS(=O)(=O)CC1CCCCC1 | 18.1 |  | 
O=C(O)[C@H](CCCCCCCc1ccc2c(n1)NCCC2)NS(=O)(=O)c1ccccc1 | 11.2 |  | 
CCCCS(=O)(=O)N[C@@H](CNC(=O)CCCCc1ccc2c(n1)NCCC2)C(=O)O |  | 2.3 | 
Cc1ccc(S(=O)(=O)N[C@@H](CNC(=O)CCCCc2ccc3c(n2)NCCC3)C(=O)O)cc1 |  | 0.4 | 
O=C(CCCCc1ccc2c(n1)NCCC2)NC[C@H](NC(=O)OCc1ccccc1)C(=O)O |  | 1.8 | 
O=C(CCCCc1ccc2c(n1)NCCC2)NC[C@H](NS(=O)(=O)c1ccccc1)C(=O)O |  | 0.3 | 
O=C(O)[C@H](CCCCCCCc1ccc2c(n1)NCCC2)NS(=O)(=O)C1CCCCC1 | 49.8 |  | 
O=C(CCCCc1ccc2c(n1)NCCC2)NC[C@H](NC(=O)c1ccccc1)C(=O)O |  | 73.8 | 
O=C(N[C@@H](CCCCCCCc1ccc2c(n1)NCCC2)C(=O)O)OCc1ccccc1 | 6.1 |  | 
CCCCS(=O)(=O)N[C@@H](CCCCCCCc1ccc2c(n1)NCCC2)C(=O)O | 21.3 |  | 
O=C(Cc1ccccc1)N[C@@H](CCCCCCCc1ccc2c(n1)NCCC2)C(=O)O | 51.6 |  | half-life [3]: 1150 min; logP [4]: 1.13; bioavailability [5]: 17%; clearance [6]: 13 mL/min/kg
O=C(O)[C@H](CCCCCCCc1ccc2c(n1)NCCC2)NS(=O)(=O)Cc1ccccc1 | 34.5 |  | 
CC1(C)[C@@H]2CC[C@@]1(CS(=O)(=O)N[C@@H](CCCCCCCc1ccc3c(n1)NCCC3)C(=O)O)C(=O)C2 | 0.8 |  | 
O=C(N[C@@H](CCCCCCCc1ccc2c(n1)NCCC2)C(=O)O)c1ccccc1 | 71.7 |  | 
CC1(C)[C@@H]2CC[C@@]1(CS(=O)(=O)N[C@@H](CNC(=O)CCCCc1ccc3c(n1)NCCC3)C(=O)O)C(=O)C2 |  | 0.1 | 
